Measured values from ChEMBL document CHEMBL6153074, “Discovery of novel dual tubulin and MMPs inhibitors for the treatment of lung cancer and overcoming drug resistance” (Eur J Med Chem, 2025).
The source made the active and inactive calls. No cut-off for these calls is given here.

What was measured:
A549 [1] = assay: cells; conditions: Homo sapiens
Description: Antiproliferative activity against human A549 cells by CCK8 assay

MDA-MB-231 = assay: Antiproliferative activity against human MDA-MB-231 cells by CCK8 assay
MCF7 = assay: Antiproliferative activity against human MCF7 cells by CCK8 assay
NCI-H460 = assay: Antiproliferative activity against human NCI-H460 cells by CCK8 assay
Stromelysin-1 = Stromelysin-1 (Homo sapiens, UniProt P08254); assay: Inhibition of MMP-3 (unknown origin) using fluorogenic-McaPro-Leu-Gly-Leu-Dpa-Ala-Arg-NH2 as substrate
Stromelysin-1, sequence (P08254 whole entry): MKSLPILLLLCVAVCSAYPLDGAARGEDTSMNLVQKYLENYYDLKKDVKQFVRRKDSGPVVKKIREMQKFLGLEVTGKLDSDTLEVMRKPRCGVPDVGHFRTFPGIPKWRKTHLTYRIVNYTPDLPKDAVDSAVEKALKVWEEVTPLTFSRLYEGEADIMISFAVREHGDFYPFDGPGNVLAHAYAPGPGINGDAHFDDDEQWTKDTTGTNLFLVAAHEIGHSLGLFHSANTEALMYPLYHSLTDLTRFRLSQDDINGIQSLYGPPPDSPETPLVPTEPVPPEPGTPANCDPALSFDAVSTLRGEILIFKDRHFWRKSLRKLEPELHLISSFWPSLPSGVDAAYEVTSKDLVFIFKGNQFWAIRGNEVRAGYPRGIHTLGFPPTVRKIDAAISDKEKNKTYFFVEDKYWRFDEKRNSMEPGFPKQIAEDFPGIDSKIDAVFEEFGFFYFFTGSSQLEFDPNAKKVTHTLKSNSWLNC

[2] = molecular target: 72 kDa type IV collagenase (Homo sapiens, UniProt P08253); assay: Inhibition of MMP-2 (unknown origin) using fluorogenic-McaPro-Leu-Gly-Leu-Dpa-Ala-Arg-NH2 as substrate
72 kDa type IV collagenase, sequence (P08253 whole entry): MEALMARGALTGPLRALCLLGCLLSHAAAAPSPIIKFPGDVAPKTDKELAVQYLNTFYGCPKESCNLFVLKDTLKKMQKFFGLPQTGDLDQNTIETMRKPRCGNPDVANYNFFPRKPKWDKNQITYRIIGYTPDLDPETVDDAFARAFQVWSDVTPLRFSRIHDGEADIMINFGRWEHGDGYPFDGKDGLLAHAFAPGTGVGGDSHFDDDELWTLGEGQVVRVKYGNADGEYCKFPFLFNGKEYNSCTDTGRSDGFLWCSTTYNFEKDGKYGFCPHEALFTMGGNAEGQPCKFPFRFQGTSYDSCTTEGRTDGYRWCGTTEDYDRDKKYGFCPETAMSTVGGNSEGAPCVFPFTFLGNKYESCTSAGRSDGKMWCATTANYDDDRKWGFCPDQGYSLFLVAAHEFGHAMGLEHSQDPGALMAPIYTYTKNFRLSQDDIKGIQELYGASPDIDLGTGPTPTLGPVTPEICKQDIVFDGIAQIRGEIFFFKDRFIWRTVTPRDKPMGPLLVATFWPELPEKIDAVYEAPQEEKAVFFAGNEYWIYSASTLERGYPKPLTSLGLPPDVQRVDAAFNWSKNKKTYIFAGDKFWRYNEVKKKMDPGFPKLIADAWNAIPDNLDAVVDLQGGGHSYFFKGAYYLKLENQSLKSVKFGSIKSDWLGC

[3] = molecular target: Matrix metalloproteinase-9 (Homo sapiens, UniProt P14780); assay: Inhibition of MMP-9 (unknown origin) using fluorogenic-McaPro-Leu-Gly-Leu-Dpa-Ala-Arg-NH2 as substrate
Matrix metalloproteinase-9, sequence (P14780 whole entry): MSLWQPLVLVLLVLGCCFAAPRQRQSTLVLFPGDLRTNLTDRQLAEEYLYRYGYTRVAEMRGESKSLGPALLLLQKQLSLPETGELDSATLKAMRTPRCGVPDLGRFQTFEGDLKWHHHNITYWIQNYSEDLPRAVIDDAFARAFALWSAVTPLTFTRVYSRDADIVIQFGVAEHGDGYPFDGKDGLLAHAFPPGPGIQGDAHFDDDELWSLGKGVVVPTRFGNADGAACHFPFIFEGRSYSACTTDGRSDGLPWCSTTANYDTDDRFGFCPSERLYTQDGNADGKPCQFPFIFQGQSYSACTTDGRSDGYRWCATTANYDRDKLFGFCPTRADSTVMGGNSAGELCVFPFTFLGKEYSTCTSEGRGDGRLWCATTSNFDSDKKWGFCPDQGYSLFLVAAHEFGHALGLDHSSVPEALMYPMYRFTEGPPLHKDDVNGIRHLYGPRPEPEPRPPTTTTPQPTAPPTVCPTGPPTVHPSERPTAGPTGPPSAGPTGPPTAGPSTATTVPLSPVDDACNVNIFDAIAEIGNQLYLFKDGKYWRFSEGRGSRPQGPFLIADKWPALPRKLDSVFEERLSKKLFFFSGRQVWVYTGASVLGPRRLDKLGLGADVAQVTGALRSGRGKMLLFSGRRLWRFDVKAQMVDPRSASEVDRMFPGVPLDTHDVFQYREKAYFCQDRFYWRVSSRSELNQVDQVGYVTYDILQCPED

[4] = Antiproliferative activity against human MCF-10A cells by CCK8 assay; assay type: toxicity, cell-based
[5] = Antiproliferative activity against human L02 cells by CCK8 assay; assay type: toxicity, cell-based
A549 [6] = assay: Induction of mitochondrial membrane potential loss in human A549 cells at 0.5 uM incubated for 24 hrs by JC-1 dye based analysis (reference value: 3.14 %); assay type: functional
A549 [7] = assay: Induction of apoptosis in human A549 cells assessed as viable cells at 0.5 uM incubated for 24 hrs by Annexin V-FITC/PI staining based flow cytometry (reference value: 95.82 %); assay type: functional; conditions: read-out: Activity
A549 [8] = assay: Anti-migration activity in human A549 cells assessed as migration rate at 0.5 uM incubated for 24 hrs by wound healing assay (reference value: 73.94 %); assay type: functional
A549 [9] = assay: Antitumor activity against human A549 cells xenografted in BALB/c mouse at 20 mg/kg, ip for 3 weeks administered on every 2 days relative to control; assay type: functional; conditions: A549, 504 h, read-out: TGI
A549 [10] = assay: Induction of apoptosis in human A549 cells assessed as necrotic cells at 0.5 uM incubated for 24 hrs by Annexin V-FITC/PI staining based flow cytometry (reference value: 0.13 %); assay type: functional
A549 [11] = assay: Induction of apoptosis in human A549 cells assessed as early apoptotic cells at 0.5 uM incubated for 24 hrs by Annexin V-FITC/PI staining based flow cytometry (reference value: 3.04 %); assay type: functional
A549 [12] = assay: Induction of cell cycle arrest in human A549 cells assessed as accumulation at G2 phase at 0.5 uM incubated for 24 hrs by PI staining based flow cytometry (reference value: 3.37 %); assay type: functional
A549 [13] = assay: Induction of cell cycle arrest in human A549 cells assessed as accumulation at S phase at 0.5 uM incubated for 24 hrs by PI staining based flow cytometry (reference value: 37.95 %); assay type: functional
[14] = Selectivity index, ratio of IC50 for antiproliferative activity against human L02 cells to IC50 for antiproliferative activity against human A549 cells; assay type: toxicity, cell-based; conditions: L02 cells and A549 cells, read-out: Ratio IC50
[15] = Selectivity index, ratio of IC50 for antiproliferative activity against human MCF-10A cells to IC50 for antiproliferative activity against human MCF7 cells; assay type: toxicity, cell-based; conditions: MCF-10A cells and MCF7 cells, read-out: Ratio IC50
Tubulin (Homo sapiens) [16] = molecular target: T1, Tubulin (Homo sapiens) (UniProt P68371+Q9H4B7+P0DPH7+P68366+Q13509+Q71U36+P04350+Q3ZCM7+P07437+P68363+Q9BQE3+Q6PEY2+Q13885+Q9BVA1+Q9BUF5); assay: Disruption of microtubule network in human A549 cells assessed as cell disorganisation at 5 uM incubated for 24 hrs by immunofluorescence based analysis
A549 [17] = assay: Induction of intracellular ROS accumulation in human A549 cells at 0.5 uM incubated for 24 hrs by DCFH-DA dye based flow cytometry (reference value: 4.96 %); assay type: functional
Tubulin (Homo sapiens) [18] = molecular target: T1, Tubulin (Homo sapiens); assay: Disruption of microtubule network in human A549 cells assessed as contraction towards cell border at 5 uM incubated for 24 hrs by immunofluorescence based analysis
A549 [19] = assay: Induction of apoptosis in human A549 cells assessed as late apoptotic cells at 0.5 uM incubated for 24 hrs by Annexin V-FITC/PI staining based flow cytometry (reference value: 1.01 %); assay type: functional
A549 [20] = assay: Induction of cell cycle arrest in human A549 cells assessed as accumulation at G1 phase at 0.5 uM incubated for 24 hrs by PI staining based flow cytometry (reference value: 58.67 %); assay type: functional

Row | Compound | IC50 (A549 [1]) | IC50 (MDA-MB-231) | IC50 (MCF7) | IC50 (NCI-H460) | further results
1 | CCOP(=O)(OCC)C(Nc1ccc(CC(=O)Oc2cc(/C=C/C(=O)c3ccc(OC)c4c3OC(C)(C)C=C4)ccc2OC)cc1)c1cc(OC)c(OC)c(OC)c1 (centres undefined) | 0.769 µM | 0.989 µM | 0.915 µM | 0.837 µM | 
2 | Cc1ccc2nc(-c3cccc(NC(=O)CCc4ccccc4)c3)[nH]c2c1 |  |  |  |  | IC50 (Stromelysin-1): 46.3 µM; IC50 [2]: 36.4 µM; IC50 [3]: 28.4 µM
3 | CCOP(=O)(OCC)C(Nc1ccc(CC(=O)Oc2cc(/C=C/C(=O)c3ccc(OC)c4c3OC(C)(C)C=C4)ccc2OC)cc1)c1ccc(OC)cc1 (centres undefined) | 0.56 µM | 0.934 µM | 0.801 µM | 0.654 µM | 
4 | CCOP(=O)(OCC)C(Nc1ccc(CC(=O)Oc2cc(/C=C/C(=O)c3cc(OC)c(OC)c(OC)c3)ccc2OC)cc1)c1ccccc1 (centres undefined) | 0.632 µM | 0.94 µM | 0.828 µM | 0.704 µM | 
5 | COc1cccc2c1C(=O)c1c(O)c3c(c(O)c1C2=O)C[C@@](O)(C(=O)CO)C[C@@H]3O[C@H]1C[C@H](N)[C@H](O)[C@H](C)O1 [DOXORUBICIN] |  |  |  |  | IC50 [4]: 0.973 µM; IC50 [5]: 1.31 µM
6 | CCOP(=O)(OCC)C(Nc1ccc(CC(=O)Oc2cc(/C=C/C(=O)c3ccc(OC)c4c3OC(C)(C)C=C4)ccc2OC)cc1)c1ccc(C)cc1 (centres undefined) | 0.484 µM | 0.799 µM | 0.765 µM | 0.562 µM | 
7 | CCOP(=O)(OCC)C(Nc1ccc(CC(=O)Oc2cc(/C=C/C(=O)c3cc(OC)c(OC)c(OC)c3)ccc2OC)cc1)c1ccc(OC)cc1 (centres undefined) | 0.545 µM | 0.834 µM | 0.752 µM | 0.658 µM | 
8 | COc1ccc(/C=C/C(=O)c2cc(OC)c(OC)c(OC)c2)cc1O | 0.456 µM | 0.808 µM | 0.722 µM | 0.538 µM | IC50 [4]: 0.967 µM; Activity (A549 [6]): 40.88%; viability at 0.5 µM (A549 [7]): 69.5%; Activity (A549 [8]): 45.16%; inhibition in vivo at 20 mg/kg (A549 [9]): 64.7%; Activity (A549 [10]): 0.84%; Activity (A549 [11]): 24.49%; IC50 [5]: 1.09 µM; Activity (A549 [12]): 69.1%; Activity (A549 [13]): 14.34%; selectivity ratio [14]: 2.4; selectivity ratio [15]: 1.34; Activity (Tubulin (Homo sapiens) [16]): Active; Activity (A549 [17]): 54.64%; Activity (Tubulin (Homo sapiens) [18]): Active; Activity (A549 [19]): 5.23%; Activity (A549 [20]): 16.56%
9 | CCOP(=O)(OCC)C(Nc1ccc(CC(=O)Oc2cc(/C=C/C(=O)c3cc(OC)c(OC)c(OC)c3)ccc2OC)cc1)c1ccc(Br)cc1 (centres undefined) | 0.609 µM | 0.939 µM | 0.872 µM | 0.762 µM | 
10 | CCOP(=O)(OCC)C(Nc1ccc(CC(=O)Oc2cc(/C=C/C(=O)c3ccc(OC)c4c3OC(C)(C)C=C4)ccc2OC)cc1)c1ccccc1 (centres undefined) | 0.591 µM | 0.898 µM | 0.797 µM | 0.698 µM | 
11 | CCOP(=O)(OCC)C(Nc1ccc(CC(=O)Oc2cc(/C=C/C(=O)c3cc(OC)c(OC)c(OC)c3)ccc2OC)cc1)c1cccc(Cl)c1 (centres undefined) | 0.649 µM | 0.901 µM | 0.818 µM | 0.845 µM | 
12 | CCOP(=O)(OCC)C(Nc1ccc(CC(=O)Oc2cc(/C=C/C(=O)c3ccc(OC)c4c3OC(C)(C)C=C4)ccc2OC)cc1)c1cccc(Cl)c1 (centres undefined) | 0.656 µM | 0.928 µM | 0.732 µM | 0.785 µM | 
13 | CCOP(=O)(OCC)C(Nc1ccc(CC(=O)Oc2cc(/C=C/C(=O)c3ccc(OC)c4c3OC(C)(C)C=C4)ccc2OC)cc1)c1ccc(Br)cc1 (centres undefined) | 0.741 µM | 0.959 µM | 0.829 µM | 0.78 µM | 
14 | COc1ccc(/C=C/C(=O)c2ccc(OC)c3c2OC(C)(C)C=C3)cc1 [MILLEPACHINE] | 5.94 µM | 4.29 µM | 5.62 µM | 7.91 µM | 
15 | CCOP(=O)(OCC)C(Nc1ccc(CC(=O)Oc2cc(/C=C/C(=O)c3cc(OC)c(OC)c(OC)c3)ccc2OC)cc1)c1cc(OC)c(OC)c(OC)c1 (centres undefined) | 0.712 µM | 0.952 µM | 0.915 µM | 0.84 µM | 
16 | CCOP(=O)(OCC)C(Nc1ccc(CC(=O)Oc2cc(/C=C/C(=O)c3cc(OC)c(OC)c(OC)c3)ccc2OC)cc1)c1ccc(OC)c(OC)c1 (centres undefined) | 0.683 µM | 0.893 µM | 0.806 µM | 0.739 µM | 
17 | COc1ccc(/C=C/C(=O)c2ccc(OC)c3c2OC(C)(C)C=C3)cc1O | 1.22 µM | 1.04 µM | 1.15 µM | 1.07 µM | 
18 | CCOP(=O)(OCC)C(Nc1ccc(CC(=O)Oc2cc(/C=C/C(=O)c3cc(OC)c(OC)c(OC)c3)ccc2OC)cc1)c1ccc(C)cc1 (centres undefined) | 0.399 µM | 0.668 µM | 0.54 µM | 0.452 µM | 
19 | CCOP(=O)(OCC)C(Nc1ccc(CC(=O)Oc2cc(/C=C/C(=O)c3ccc(OC)c4c3OC(C)(C)C=C4)ccc2OC)cc1)c1ccc(Cl)cc1 (centres undefined) | 0.709 µM | 0.978 µM | 0.808 µM | 0.758 µM | 
20 | CCOP(=O)(OCC)C(Nc1ccc(CC(=O)Oc2cc(/C=C/C(=O)c3ccc(OC)c4c3OC(C)(C)C=C4)ccc2OC)cc1)c1ccc(OC)c(OC)c1 (centres undefined) | 0.608 µM | 0.936 µM | 0.822 µM | 0.731 µM | 

The remaining compounds from weak to strong by IC50 (A549 [1]), led by results:

Row | IC50 (A549 [1]) | IC50 (MDA-MB-231) | IC50 (MCF7) | IC50 (NCI-H460) | Compound | further results
21 | 0.392 µM | 0.692 µM | 0.567 µM | 0.5 µM | CCOP(=O)(OCC)C(Nc1ccc(CC(=O)Oc2cc(/C=C/C(=O)c3ccc(OC)c4c3OC(C)(C)C=C4)ccc2OC)cc1)c1ccc(F)cc1 (centres undefined) | 
22 | 0.379 µM | 0.721 µM | 0.667 µM | 0.465 µM | CCOP(=O)(OCC)C(Nc1ccc(CC(=O)Oc2cc(/C=C/C(=O)c3cc(OC)c(OC)c(OC)c3)ccc2OC)cc1)c1cccc(OC)c1 (centres undefined) | 
23 | 0.368 µM | 0.643 µM | 0.554 µM | 0.469 µM | CCOP(=O)(OCC)C(Nc1ccc(CC(=O)Oc2cc(/C=C/C(=O)c3ccc(OC)c4c3OC(C)(C)C=C4)ccc2OC)cc1)c1ccc([N+](=O)[O-])cc1 (centres undefined) | 
24 | 0.328 µM | 0.57 µM | 0.507 µM | 0.423 µM | CCOP(=O)(OCC)C(Nc1ccc(CC(=O)Oc2cc(/C=C/C(=O)c3cc(OC)c(OC)c(OC)c3)ccc2OC)cc1)c1ccc([N+](=O)[O-])cc1 (centres undefined) | 
25 | 0.309 µM | 0.574 µM | 0.414 µM | 0.385 µM | CCOP(=O)(OCC)C(Nc1ccc(CC(=O)Oc2cc(/C=C/C(=O)c3cc(OC)c(OC)c(OC)c3)ccc2OC)cc1)c1cccc(C)c1 (centres undefined) | 
26 | 0.288 µM | 0.544 µM | 0.423 µM | 0.374 µM | CCOP(=O)(OCC)C(Nc1ccc(CC(=O)Oc2cc(/C=C/C(=O)c3ccc(OC)c4c3OC(C)(C)C=C4)ccc2OC)cc1)c1cccc(F)c1 (centres undefined) | 
27 | 0.253 µM | 0.492 µM | 0.357 µM | 0.267 µM | CCOP(=O)(OCC)C(Nc1ccc(CC(=O)Oc2cc(/C=C/C(=O)c3cc(OC)c(OC)c(OC)c3)ccc2OC)cc1)c1cccc(F)c1 (centres undefined) | 
28 | 0.206 µM | 0.454 µM | 0.332 µM | 0.299 µM | CCOP(=O)(OCC)C(Nc1ccc(CC(=O)Oc2cc(/C=C/C(=O)c3ccc(OC)c4c3OC(C)(C)C=C4)ccc2OC)cc1)c1cccc([N+](=O)[O-])c1 (centres undefined) | 
29 | 0.109 µM | 0.208 µM | 0.122 µM | 0.155 µM | CC(=O)O[C@H]1C(=O)[C@@]2(C)[C@H]([C@H](OC(=O)c3ccccc3)[C@]3(O)C[C@H](OC(=O)[C@H](O)[C@@H](NC(=O)c4ccccc4)c4ccccc4)C(C)=C1C3(C)C)[C@]1(OC(C)=O)CO[C@@H]1C[C@@H]2O [PACLITAXEL] | IC50 [4]: 0.114 µM; IC50 [5]: 0.095 µM; selectivity ratio [14]: 0.87; selectivity ratio [15]: 0.93
